Active and inactive are the calls of the source.
Tests used:
[1] = target: Neurotensin receptor type 1 (Homo sapiens, UniProt P30989); format: functional;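 also: Image-based confirmatory dose-response assay measuring agonist activity at NTR1; NTR1-expressing U2OS osteosarcoma cells imaged for beta-arrestin GFP spot formation; agonist potency where compounds increase beta-arrestin recruitment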
[2] = target: T1, Neuropeptide Y receptor type 1 (Homo sapiens, UniProt P25929); format: functional;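 also: HEK293 cells with a CNG channel challenged with NPY then isoproterenol; potency as antagonist that reverses NPY suppression of cAMP signal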
T1 sequence (P25929 whole entry): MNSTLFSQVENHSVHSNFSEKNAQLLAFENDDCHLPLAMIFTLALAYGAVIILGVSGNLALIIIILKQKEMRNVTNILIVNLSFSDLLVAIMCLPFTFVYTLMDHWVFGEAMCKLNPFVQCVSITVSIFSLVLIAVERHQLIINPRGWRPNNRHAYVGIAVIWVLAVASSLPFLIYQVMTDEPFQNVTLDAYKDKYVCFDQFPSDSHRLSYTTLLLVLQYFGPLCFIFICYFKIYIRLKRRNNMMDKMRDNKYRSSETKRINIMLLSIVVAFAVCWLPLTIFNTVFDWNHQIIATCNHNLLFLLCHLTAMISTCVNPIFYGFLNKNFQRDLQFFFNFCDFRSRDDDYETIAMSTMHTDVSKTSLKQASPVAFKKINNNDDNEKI

[3] = target: T2, Neuropeptide Y receptor type 2 (Homo sapiens, UniProt P49146); format: functional, cell-based;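 also: HEK293 cells expressing the receptor and a CNG channel; stimulus was NPY near EC95 followed by isoproterenol to raise cAMP; antagonist potency measured as restoring cAMP signal that NPY suppresses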
T2 sequence (P49146 whole entry): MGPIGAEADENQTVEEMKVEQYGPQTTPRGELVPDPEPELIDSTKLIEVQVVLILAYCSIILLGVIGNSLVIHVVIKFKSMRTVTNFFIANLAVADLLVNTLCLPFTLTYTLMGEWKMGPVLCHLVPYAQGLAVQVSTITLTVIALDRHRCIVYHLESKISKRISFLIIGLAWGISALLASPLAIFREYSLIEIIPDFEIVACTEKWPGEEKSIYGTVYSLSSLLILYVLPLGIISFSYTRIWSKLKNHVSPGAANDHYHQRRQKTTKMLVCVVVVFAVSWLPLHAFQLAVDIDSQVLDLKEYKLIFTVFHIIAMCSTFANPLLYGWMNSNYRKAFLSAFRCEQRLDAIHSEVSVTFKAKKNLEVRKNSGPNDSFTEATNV

[4] = target: Heat shock protein HSP 90-alpha (Homo sapiens, UniProt P07900); format: functional, organism-based
[5] = inhibitors of intracellular T. cruzi replication, confirmation, NIH3T3 host cells, beta-gal luminescence (AID 2044); format: functional, cell-based;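 also: intracellular parasites grown in NIH/3T3 mouse fibroblasts as host cells; luminescent beta-galactosidase reporter signal from transgenic T. cruzi replicating inside host cells; inhibitors lower the luminescence signal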
cells [6] = assay: cells
[7] = cytotoxicity toward NIH3T3 fibroblasts, dose response, counter-screen, cell-based, ATP luminescence, mouse fibroblasts (AID 2010); format: functional;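 also: cells exposed to compound for about 90 hours before reading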
[8] = P. falciparum ATP4 D1247Y mutant growth inhibitors, dose response, NITD609-resistant line, SYBR Green, dry powder (AID 1159571); format: functional, cell-based;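 also: parasites synchronized at ring stage by sorbitol before testing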
[9] = P. falciparum 3D7-ScDHODH growth inhibitors, dose response, SYBR Green, dry powder samples (AID 1159570); format: functional, cell-based;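 also: parasite growth measured after 72 hours of compound exposure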
[10] = P. falciparum Dd2 growth inhibitors, dose response, SYBR Green, dry powder samples (AID 1159566); format: functional, cell-based;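 also: potency for growth inhibition with lower SYBR green DNA signal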
[11] = inhibitors of HIV Env-driven cell fusion, dose response, cherry-pick (AID 652057); format: functional, cell-based
[12] = P. falciparum Dd2 growth inhibitors, dose response, SYBR Green, cherry-picked samples (AID 1159567); format: functional, cell-based
[13] = HepG2 cell cytotoxicity, dose response, cytotoxicity control, plate reader, dry powder samples (AID 1159569); format: functional, cell-based;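 also: inhibitor potency with signal falling toward the positive control level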
Estrogen receptor beta = Estrogen receptor beta (Homo sapiens, UniProt Q92731);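 also: recombinant ER-beta bound to coactivator SRC1 peptide in presence of estradiol agonist; inhibitors block coactivator peptide binding and lower the FRET signal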
Estrogen receptor = target: T3, Estrogen receptor (Homo sapiens, UniProt P03372);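 also: potency for inhibiting coactivator peptide recruitment to the receptor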
T3 sequence (P03372 whole entry): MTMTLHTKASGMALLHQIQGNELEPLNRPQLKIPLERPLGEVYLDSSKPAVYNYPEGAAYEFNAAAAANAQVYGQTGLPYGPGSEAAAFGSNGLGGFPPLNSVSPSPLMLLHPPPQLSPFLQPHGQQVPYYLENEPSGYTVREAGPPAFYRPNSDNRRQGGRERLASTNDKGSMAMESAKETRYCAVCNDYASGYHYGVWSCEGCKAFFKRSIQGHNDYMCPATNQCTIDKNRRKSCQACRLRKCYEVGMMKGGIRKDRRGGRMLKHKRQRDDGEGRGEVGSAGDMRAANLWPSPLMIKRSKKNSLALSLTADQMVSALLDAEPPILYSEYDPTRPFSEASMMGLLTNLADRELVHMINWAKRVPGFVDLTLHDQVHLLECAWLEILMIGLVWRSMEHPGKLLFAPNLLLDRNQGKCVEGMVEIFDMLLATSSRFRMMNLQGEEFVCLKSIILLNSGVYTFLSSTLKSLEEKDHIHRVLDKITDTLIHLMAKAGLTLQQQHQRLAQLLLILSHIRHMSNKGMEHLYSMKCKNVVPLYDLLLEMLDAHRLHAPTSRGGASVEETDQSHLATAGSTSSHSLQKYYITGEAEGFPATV

[14] = microbe, parasite or virus in culture; format: functional; conditions: Mycobacterium tuberculosis
[15] = target: Luciferin 4-monooxygenase (Photinus pyralis, UniProt P08659); assay: firefly luciferase enzyme inhibitors, dose response, biochemical, luminescence (AID 1891)
[16] = Luminescence Cell-Based Dose Confirmation HTS to Identify Inhibitors of Platelet Dense Granule Release. [Related pubchem assays: 1663 (Primary HTS), 1678 (Summary of Project)]; format: functional
Cytochrome P450 3A4 = Cytochrome P450 3A4 (Homo sapiens, UniProt P08684); conditions: Potency;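 also: confirmatory qHTS run detecting inhibitors and substrates of CYP3A4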
[17] = A Cell Based Secondary Assay To Explore Cytotoxicity of Compounds that Sensitize Mycobacterium Tuberculosis to Beta-Lactam Antibiotics.; format: functional
[18] = target: T4, Heat shock factor protein 1 (Mus musculus, UniProt P38532); assay: inhibition of MG132-induced HSE-luciferase signal, confirmation, cell-based, NIH3T3, luminescence, dose retest (AID 2382); format: functional;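 also: NIH3T3 fibroblasts with HSF1-driven luciferase reporter stressed by proteasome inhibitor MG132; luminescence from HSF1-driven luciferase expression after 8 hours of MG132 stress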
T4 sequence (P38532 whole entry): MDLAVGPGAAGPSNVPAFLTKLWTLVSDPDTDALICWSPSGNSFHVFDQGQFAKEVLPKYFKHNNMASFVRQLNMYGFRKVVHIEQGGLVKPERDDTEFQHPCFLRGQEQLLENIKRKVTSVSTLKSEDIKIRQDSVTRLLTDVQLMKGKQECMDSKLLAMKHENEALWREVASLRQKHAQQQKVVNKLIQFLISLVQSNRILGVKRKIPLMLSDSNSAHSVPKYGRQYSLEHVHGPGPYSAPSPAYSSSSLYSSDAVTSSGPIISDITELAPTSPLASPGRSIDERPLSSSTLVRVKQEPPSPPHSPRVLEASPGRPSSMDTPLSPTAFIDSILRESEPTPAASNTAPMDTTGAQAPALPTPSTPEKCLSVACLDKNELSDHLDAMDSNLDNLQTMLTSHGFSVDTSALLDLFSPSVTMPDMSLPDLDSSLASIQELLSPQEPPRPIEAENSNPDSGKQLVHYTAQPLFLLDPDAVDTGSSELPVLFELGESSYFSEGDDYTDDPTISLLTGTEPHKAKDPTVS

BJ [19] = assay: cytotoxicity toward BJ-TERT fibroblasts, dose response, cell-based, RAS-independent, luminescence (AID 1933); format: functional; conditions: Homo sapiens
[20] = inhibitors of SNCA 5'UTR-driven reporter translation, confirmation, H4 neuroglioma cells, luminescence (AID 1988); format: functional, cell-based
[21] = inhibitors of firefly luciferase expression or activity, dose response, H4 neuroglioma cells, luminescence (AID 1990); format: functional, cell-based
[22] = cytotoxicity toward DRD oncogenic fibroblasts, dose response, cell-based, non-viral oncogenic, luminescence (AID 1934); format: functional; conditions: Homo sapiens
BJ [23] = assay: cytotoxicity toward BJ-TERT-LT-ST fibroblasts, dose response, cell-based, RAS-independent, luminescence (AID 1935); format: functional; conditions: Homo sapiens;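 also: BJ fibroblasts immortalized with TERT plus LT and ST oncogenes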
BJ [24] = assay: cells; format: functional, cell-based; conditions: Homo sapiens
[25] = Luminescence Cell-Based Dose Response HTS to Identify Inhibitors of 5'UTR Stem-Loop Driven Prion Protein mRNA Translation in H4 Neuroglioblastoma Cells. [Related pubchem assays: 1827 (Project Summary), 1813 (Primary HTS)]; format: functional
cells [26] = format: functional, cell-based
[27] = luciferase reporter signal reduction – luminescence, H4-C neuroglioblastoma cells, dose response (AID 2458); format: functional, cell-based;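 also: H4 neuroglioblastoma cells stably carrying a luciferase reporter gene fusion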
[28] = inhibitors of SNCA 5'UTR-driven translation, confirmation, luminescence, H4 neuroglioblastoma cells, dose confirmation (AID 2454); format: functional, cell-based;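 also: H4 neuroglioblastoma cells carrying an alpha-synuclein 5'UTR luciferase reporter; potency for inhibition of the luciferase signal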
[29] = inhibitors of Vif binding to APOBEC3G peptide, primary screen, biochemical, TR-FRET, GST-Vif 1-94, biotin-A3G peptide, dose response retest (AID 1117319); format: functional;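 also: TR-FRET signal of purified GST-Vif binding a biotinylated A3G peptide; inhibitors lower the FRET signal by blocking Vif and A3G binding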
Bcl-2-like protein 1 = Bcl-2-like protein 1 (Homo sapiens, UniProt Q07817); assay: BCL-XL inhibitors, dose response, selectivity assay for MCL1 inhibitor project, biochemical, fluorescence polarization, 1536-well (AID 2218)
[30] = target: Induced myeloid leukemia cell differentiation protein Mcl-1 (Homo sapiens, UniProt Q07820); assay: MCL1-BIM BH3 interaction inhibitors, dose response, biochemical, fluorescence polarization, BIM-BH3 peptide, 1536-well (AID 2217)
Cytochrome P450 2C9 = Cytochrome P450 2C9 (Homo sapiens, UniProt P11712)
Cytochrome P450 2C19 = Cytochrome P450 2C19 (Homo sapiens, UniProt P33261); assay: Cytochrome panel assay with activity outcomes. Panel member name: p450-cyp2c19 Compounds with AC50 equal or less than 10 uM are considered active; format: functional
[31] = target: Melanin-concentrating hormone receptor 1 (Homo sapiens, UniProt Q99705); assay: Late-stage fluorescence-based counterscreen for antagonists of the G-protein coupled receptor 7 (GPR7): cell-based dose response assay to identify antagonists of the melanin-concentrating hormone receptor 1 (MCHR1). [Related pubchem assays (depositor defined):AID1861, AID1880, AID1952, AID2148, AID2251, AID2257, AID485339]; format: functional;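 also: stimulated with 30 nM MCH peptide agonist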
Protein Tat = target: T5, Protein Tat (Human immunodeficiency virus type 1 group M subtype B (isolate HXB2)(HIV-1), UniProt P04608); format: functional;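 also: tat binding to TAR RNA read out by fluorescence polarization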
T5 sequence (P04608 whole entry): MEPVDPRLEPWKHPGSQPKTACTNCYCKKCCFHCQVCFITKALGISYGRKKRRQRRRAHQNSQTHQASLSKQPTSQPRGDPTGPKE

Sequence of Cytochrome P450 3A4 (P08684 whole entry): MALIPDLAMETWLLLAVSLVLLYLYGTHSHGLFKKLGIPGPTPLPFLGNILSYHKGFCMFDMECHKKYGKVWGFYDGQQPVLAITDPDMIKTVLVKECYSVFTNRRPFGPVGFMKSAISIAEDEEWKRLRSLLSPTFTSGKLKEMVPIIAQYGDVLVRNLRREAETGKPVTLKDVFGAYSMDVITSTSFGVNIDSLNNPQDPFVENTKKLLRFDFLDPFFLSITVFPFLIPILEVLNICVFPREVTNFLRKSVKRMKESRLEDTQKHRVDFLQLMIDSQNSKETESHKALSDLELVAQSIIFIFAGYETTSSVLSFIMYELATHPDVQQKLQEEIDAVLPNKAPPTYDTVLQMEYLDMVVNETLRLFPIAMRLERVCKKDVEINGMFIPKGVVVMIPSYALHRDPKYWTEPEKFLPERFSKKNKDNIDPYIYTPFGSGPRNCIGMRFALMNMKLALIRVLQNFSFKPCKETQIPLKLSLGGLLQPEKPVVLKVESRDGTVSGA
Sequence of Neurotensin receptor type 1 (P30989 whole entry): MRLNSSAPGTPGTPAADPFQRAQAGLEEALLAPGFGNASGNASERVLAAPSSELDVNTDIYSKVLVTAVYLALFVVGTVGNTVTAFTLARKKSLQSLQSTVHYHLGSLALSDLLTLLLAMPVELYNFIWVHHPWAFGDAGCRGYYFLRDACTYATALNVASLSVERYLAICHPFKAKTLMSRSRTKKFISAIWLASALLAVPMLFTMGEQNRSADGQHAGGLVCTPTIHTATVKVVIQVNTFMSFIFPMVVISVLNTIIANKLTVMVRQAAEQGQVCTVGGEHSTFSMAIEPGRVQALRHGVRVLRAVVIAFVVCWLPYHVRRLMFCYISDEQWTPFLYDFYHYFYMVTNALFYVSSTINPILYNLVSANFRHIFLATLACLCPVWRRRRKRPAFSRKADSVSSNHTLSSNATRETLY
Sequence of Estrogen receptor beta (Q92731 whole entry): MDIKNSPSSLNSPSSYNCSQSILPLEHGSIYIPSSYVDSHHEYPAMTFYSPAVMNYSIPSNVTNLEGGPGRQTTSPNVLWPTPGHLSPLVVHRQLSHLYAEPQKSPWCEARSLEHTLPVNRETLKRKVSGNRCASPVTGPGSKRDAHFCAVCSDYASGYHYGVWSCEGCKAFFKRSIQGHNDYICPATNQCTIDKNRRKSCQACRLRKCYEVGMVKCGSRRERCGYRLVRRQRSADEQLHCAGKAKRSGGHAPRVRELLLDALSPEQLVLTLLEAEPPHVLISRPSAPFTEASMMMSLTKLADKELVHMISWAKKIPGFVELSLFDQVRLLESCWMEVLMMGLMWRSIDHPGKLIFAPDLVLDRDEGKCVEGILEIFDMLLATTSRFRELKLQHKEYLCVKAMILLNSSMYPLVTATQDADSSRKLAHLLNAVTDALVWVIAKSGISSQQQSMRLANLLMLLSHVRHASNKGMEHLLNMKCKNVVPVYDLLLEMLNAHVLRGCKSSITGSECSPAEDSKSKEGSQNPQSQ
Sequence of Cytochrome P450 2C9 (P11712 whole entry): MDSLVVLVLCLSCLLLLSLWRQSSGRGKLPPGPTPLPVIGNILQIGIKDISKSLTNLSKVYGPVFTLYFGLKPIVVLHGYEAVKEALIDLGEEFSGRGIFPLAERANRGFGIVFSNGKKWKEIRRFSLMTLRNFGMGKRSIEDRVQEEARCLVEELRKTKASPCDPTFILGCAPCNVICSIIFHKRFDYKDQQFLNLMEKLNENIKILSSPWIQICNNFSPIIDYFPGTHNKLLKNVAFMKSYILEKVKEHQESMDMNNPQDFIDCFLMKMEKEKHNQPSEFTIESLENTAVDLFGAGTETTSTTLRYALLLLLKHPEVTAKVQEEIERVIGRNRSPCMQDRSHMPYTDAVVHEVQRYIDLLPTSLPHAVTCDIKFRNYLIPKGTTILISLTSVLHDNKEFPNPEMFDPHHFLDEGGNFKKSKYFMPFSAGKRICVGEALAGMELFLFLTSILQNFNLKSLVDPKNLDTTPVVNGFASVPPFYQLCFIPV
Sequence of Luciferin 4-monooxygenase (P08659 whole entry): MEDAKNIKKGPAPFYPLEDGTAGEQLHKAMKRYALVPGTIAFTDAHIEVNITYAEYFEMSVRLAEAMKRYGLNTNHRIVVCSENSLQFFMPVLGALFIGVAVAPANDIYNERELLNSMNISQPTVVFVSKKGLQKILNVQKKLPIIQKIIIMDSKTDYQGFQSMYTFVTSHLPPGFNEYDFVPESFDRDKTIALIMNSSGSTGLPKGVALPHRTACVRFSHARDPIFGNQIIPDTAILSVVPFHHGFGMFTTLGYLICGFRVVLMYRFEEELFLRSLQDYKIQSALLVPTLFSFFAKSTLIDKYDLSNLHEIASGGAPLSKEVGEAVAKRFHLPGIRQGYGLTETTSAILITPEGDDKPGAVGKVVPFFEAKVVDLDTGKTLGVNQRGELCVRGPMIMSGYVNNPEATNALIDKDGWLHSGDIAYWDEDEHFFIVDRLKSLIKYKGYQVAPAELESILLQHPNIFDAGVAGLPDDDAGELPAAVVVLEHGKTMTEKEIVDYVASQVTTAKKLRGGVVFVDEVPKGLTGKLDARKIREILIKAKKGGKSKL
Sequence of Induced myeloid leukemia cell differentiation protein Mcl-1 (Q07820 whole entry): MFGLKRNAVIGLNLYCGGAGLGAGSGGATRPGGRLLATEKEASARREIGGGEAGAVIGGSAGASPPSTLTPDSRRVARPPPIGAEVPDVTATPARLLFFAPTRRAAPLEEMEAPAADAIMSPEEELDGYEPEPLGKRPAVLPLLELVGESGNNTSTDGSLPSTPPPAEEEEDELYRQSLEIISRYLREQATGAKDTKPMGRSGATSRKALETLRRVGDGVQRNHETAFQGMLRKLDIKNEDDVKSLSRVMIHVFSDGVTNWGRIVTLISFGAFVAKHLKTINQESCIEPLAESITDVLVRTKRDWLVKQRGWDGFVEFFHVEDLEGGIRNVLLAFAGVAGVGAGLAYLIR
Sequence of Cytochrome P450 2C19 (P33261 whole entry): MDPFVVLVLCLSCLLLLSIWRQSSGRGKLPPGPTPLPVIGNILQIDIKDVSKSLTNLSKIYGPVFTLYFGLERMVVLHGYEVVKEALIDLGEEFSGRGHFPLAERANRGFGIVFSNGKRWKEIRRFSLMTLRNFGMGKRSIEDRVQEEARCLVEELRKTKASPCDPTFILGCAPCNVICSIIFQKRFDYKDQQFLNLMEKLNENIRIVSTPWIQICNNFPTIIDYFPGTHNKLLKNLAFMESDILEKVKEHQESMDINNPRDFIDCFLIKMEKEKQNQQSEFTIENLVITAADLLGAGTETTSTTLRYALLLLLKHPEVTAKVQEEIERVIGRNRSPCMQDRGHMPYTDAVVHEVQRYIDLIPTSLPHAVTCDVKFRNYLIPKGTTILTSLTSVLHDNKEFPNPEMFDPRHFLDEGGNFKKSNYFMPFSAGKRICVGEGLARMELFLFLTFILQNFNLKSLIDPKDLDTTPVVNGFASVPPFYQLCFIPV
Sequence of Melanin-concentrating hormone receptor 1 (Q99705 whole entry): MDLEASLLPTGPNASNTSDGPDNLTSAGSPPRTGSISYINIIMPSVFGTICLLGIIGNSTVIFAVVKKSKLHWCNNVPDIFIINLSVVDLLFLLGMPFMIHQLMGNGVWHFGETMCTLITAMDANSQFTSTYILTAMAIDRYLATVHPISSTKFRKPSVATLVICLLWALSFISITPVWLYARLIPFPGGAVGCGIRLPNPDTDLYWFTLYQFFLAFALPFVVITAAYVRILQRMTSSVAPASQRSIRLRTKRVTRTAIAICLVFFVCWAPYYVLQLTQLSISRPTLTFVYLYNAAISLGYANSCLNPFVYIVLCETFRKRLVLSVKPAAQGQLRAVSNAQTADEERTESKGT
Sequence of Bcl-2-like protein 1 (Q07817 whole entry): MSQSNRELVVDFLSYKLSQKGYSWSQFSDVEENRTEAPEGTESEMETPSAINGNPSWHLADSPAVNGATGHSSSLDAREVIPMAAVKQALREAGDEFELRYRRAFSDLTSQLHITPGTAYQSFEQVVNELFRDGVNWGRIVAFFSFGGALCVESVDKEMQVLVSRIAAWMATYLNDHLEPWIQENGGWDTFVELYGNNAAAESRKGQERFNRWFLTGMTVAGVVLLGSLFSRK

COc1cccc(/C=C/C(=O)c2cccc([N+](=O)[O-])c2)c1OC
EC50 [1]: 9.39 µM (active)

O=C(COC(=O)c1ccc(-c2ccccc2)cc1)Nc1ccccc1-c1ccccc1
IC50 [2]: 5.72 µM (active)
IC50 [3]: 6.97 µM (active)

Cc1sc(NC(=O)c2ccco2)c(C(c2cccnc2)N2CCC(C)CC2)c1C (stereo not drawn)
AC50 [4]: 4.94 µM (active)
EC50 [5]: < 0.1 µM (active)
EC50 (cells [6]): 0.182 µM (active)
EC50 [7]: 9.92 µM (active)

C[C@@H]1CN([C@H](C)CO)S(=O)(=O)c2ccc(-c3ccncc3)cc2O[C@@H]1CN(C)Cc1ccc(Oc2ccccc2)cc1
AC50 [8]: 0.616 µM (active)
AC50 [9]: 0.589 µM (active)
AC50 [10]: 0.539 µM (active)
AC50 [11]: 22.4 µM (active)
AC50 [12]: 1.16 µM (active)
AC50 [13]: > 100 µM (inactive)

O=C(O)CSc1nnc(-c2ccc3c(c2)OCO3)o1
IC50 [2]: > 35 µM (not active)
IC50 [3]: > 35 µM (not active)

O=C(CCC(=O)Nc1nnc(C2CCCCC2)s1)NCC1CCCO1 (stereo not drawn)
IC50 (Estrogen receptor beta): > 50 µM (not active)
IC50 (Estrogen receptor): > 50 µM (not active)

Cc1nc(N2CCC(C)CC2)c2oc3ccccc3c2n1
IC50 [2]: 7.23 µM (active)
CC50 [14]: > 40 µM (active)
EC50 [15]: 109 µM (active)
EC50 [16]: > 112 µM (not active)
IC50 [3]: 5.77 µM (active)

CCCCCCC1=Cc2cc(OC)c(OC)cc2C(C(C(C)=O)C(=O)OC)O1 (stereo not drawn)
AC50 (Cytochrome P450 3A4): 3.16 µM (inconclusive)

COC(=O)c1c(CSc2cccc(C)c2)noc1C(=O)NCc1ccco1
CC50 [17]: > 40 µM (active)

COc1ccc(NC(=O)c2ccco2)cc1N
IC50 (Estrogen receptor beta): 10.7 µM (active)
EC50 [18]: > 195 µM (not active)
IC50 (Estrogen receptor): 36.1 µM (not active)

CCc1ccc2oc(-c3cc(N)cc(C)c3O)nc2c1
CC50 [17]: > 40 µM (active)

C=C(C)COc1ccc2c(C)c(C)c(=O)oc2c1OCC(=C)C
CC50 [17]: > 40 µM (active)

CC(C)c1ccc(Nc2nnc(SC3CCOC3=O)s2)cc1 (stereo not drawn)
EC50 [1]: 7.37 µM (active)

O=C(COc1ncnc2cc([N+](=O)[O-])ccc12)NCCc1ccc(Cl)cc1
EC50 [5]: < 0.1 µM (active)
EC50 (cells [6]): 0.377 µM (active)
EC50 [7]: > 30 µM (not active)

COC(=O)[C@@]1(C)C=C[C@@H](Cc2ccccc2)N1C(=O)c1ccccc1
AC50 (Cytochrome P450 3A4): 20 µM (inconclusive)

Brc1ccc(C2=Nn3c(nnc3-c3[nH]nc4c3CCC4)SC2)cc1
EC50 (BJ [19]): 2.33 µM (active)
EC50 [20]: < 0.1 µM (active)
EC50 [21]: 11.9 µM (active)
EC50 [22]: 1.65 µM (active)
EC50 (BJ [23]): 138 µM (inconclusive)
EC50 (BJ [24]): 43.5 µM (active)
EC50 [25]: > 120 µM (not active)
EC50 (cells [26]): 2.12 µM (active)
EC50 [27]: > 3.8 µM (not active)
EC50 [28]: 1.97 µM (active)

Cc1ccc(C2SCC(=O)N2Cc2cn3ccsc3n2)o1 (stereo not drawn)
IC50 [29]: > 100 µM (active)

O=C(CN(C(=O)c1ccc(Cl)cc1)N1C(=O)C2CCCCC2C1=O)c1ccc(Cl)cc1 (stereo not drawn)
EC50 [1]: 18 µM (active)

C[C@H](NS(=O)(=O)OCC(Cl)(Cl)Cl)C1CC1c1ccccc1 (stereo partly drawn)
IC50 (Bcl-2-like protein 1): > 109 µM (not active)
IC50 [30]: 65.4 µM (not active)

C(#CC1C=CC2OC(c3ccccc3)OCC2O1)c1ccccc1 (stereo not drawn)
AC50 (Cytochrome P450 3A4): 2.51 µM (inconclusive)

COc1ccc(/C=C(/NC(C)=O)C(=O)O)cc1
AC50 (Cytochrome P450 2C9): 10 µM (inconclusive)
IC50 [29]: > 100 µM (active)
AC50 (Cytochrome P450 2C19): 11.2 µM (inconclusive)

CCOc1ccc(Oc2c(Br)cnn(-c3ccc(C(C)C)cc3)c2=O)cc1
IC50 [31]: 3.1 µM (active)

CCc1cc2c(CN3CCN(CC)CC3)cc(=O)oc2cc1O
IC50 [29]: > 100 µM (active)

O=C1NC(=O)C(=CN2CCc3ccccc32)C(=O)N1
IC50 (Protein Tat): > 100 µM (active)

COc1cc(CN2CCCCC2)ccc1OCc1ccccc1
EC50 [5]: < 0.1 µM (active)
EC50 (cells [6]): 0.67 µM (active)
EC50 [7]: > 60 µM (not active)

Source: ChEMBL document CHEMBL1201862, “PubChem BioAssay data set” (2004)
